Our source for the EC50 and Emax values is US8314239B2, “Modulators of cystic fibrosis transmembrane conductance regulator” (priority 2008, dated 2012).

Structures can show the parent of a compound that is named as a salt. Where only a bound is given, the exact number is not on record here.

This assay addresses T1, ΔF508-CFTR (Homo sapiens, UniProt P13569, DEL508-508).
T1 construct: expressed in transfected cells
Kind of assay: Membrane potential optical assay for ΔF508-CFTR potentiation (double-addition HTS, FLIPR III). The assay is classed as cell-based. The conditions noted are these: for Emax: 100% efficacy is the maximum response obtained with 4-methyl-2-(5-phenyl-1H-pyrazol-3-yl)phenol. From the text:
Membrane Potential Optical Methods for Assaying ΔF508-CFTR Modulation Properties of Compounds
The assay utilizes fluorescent voltage sensing dyes to measure changes in membrane potential using a fluorescent plate reader (e.g., FLIPR III, Molecular Devices, Inc.) as a readout for increase in functional ΔF508-CFTR in NIH 3T3 cells. The driving force for the response is the creation of a chloride ion gradient in conjunction with channel activation by a single liquid addition step after the cells have previously been treated with compounds and subsequently loaded with a voltage sensing dye.
To identify potentiators of ΔF508-CFTR, a double-addition HTS assay format was developed. This HTS assay utilizes fluorescent voltage sensing dyes to measure changes in membrane potential on the FLIPR III as a measurement for increase in gating (conductance) of ΔF508 CFTR in temperature-corrected ΔF508 CFTR NIH 3T3 cells. The driving force for the response is a Cl^− ion gradient in conjunction with channel activation with forskolin in a single liquid addition step using a fluorescent plate reader such as FLIPR III after the cells have previously been treated with potentiator compounds (or DMSO vehicle control) and subsequently loaded with a redistribution dye.
Bath Solution #1: (in mM) NaCl 160, KCl 4.5, CaCl2 2, MgCl2 1, HEPES 10, pH 7.4 with NaOH.
Chloride-Free Bath Solution: Chloride Salts in Bath Solution #1 are Substituted with Gluconate Salts.
NIH3T3 mouse fibroblasts stably expressing ΔF508-CFTR are used for optical measurements of membrane potential. The cells are maintained at 37° C. in 5% CO2 and 90% humidity in Dulbecco's modified Eagle's medium supplemented with 2 mM glutamine, 10% fetal bovine serum, 1×NEAA, β-ME, 1× pen/strep, and 25 mM HEPES in 175 cm^2 culture flasks. For all optical assays, the cells were seeded at ˜20,000/well in 384-well matrigel-coated plates and cultured for 2 hrs at 37° C. before culturing at 27° C. for 24 hrs. for the potentiator assay. For the correction assays, the cells are cultured at 27° C. or 37° C. with and without compounds for 16-24 hours. Electrophysiological Assays for assaying ΔF508-CFTR modulation properties of compounds.
Compounds of the invention are useful as modulators of ATP binding cassette transporters. Examples of activities and efficacies of the compounds of Formula (I) are shown below in Table 3. The compound activity is illustrated with “+++” if activity was measured to be less than 2.0 μM, “++” if activity was measured to be from 2 μM to 5.0 μM, “+” if activity was measured to be greater than 5.0 μM, and “−” if no data was available. The efficacy is illustrated with “+++” if efficacy was calculated to be greater than 100%, “++” if efficacy was calculated to be from 100% to 25%, “+” if efficacy was calculated to be less than 25%, and “−” if no data was available. It should be noted that 100% efficacy is the maximum response obtained with 4-methyl-2-(5-phenyl-1H-pyrazol-3-yl)phenol.

T1 sequence (P13569 with tags, fused parts or gaps DEL508-508): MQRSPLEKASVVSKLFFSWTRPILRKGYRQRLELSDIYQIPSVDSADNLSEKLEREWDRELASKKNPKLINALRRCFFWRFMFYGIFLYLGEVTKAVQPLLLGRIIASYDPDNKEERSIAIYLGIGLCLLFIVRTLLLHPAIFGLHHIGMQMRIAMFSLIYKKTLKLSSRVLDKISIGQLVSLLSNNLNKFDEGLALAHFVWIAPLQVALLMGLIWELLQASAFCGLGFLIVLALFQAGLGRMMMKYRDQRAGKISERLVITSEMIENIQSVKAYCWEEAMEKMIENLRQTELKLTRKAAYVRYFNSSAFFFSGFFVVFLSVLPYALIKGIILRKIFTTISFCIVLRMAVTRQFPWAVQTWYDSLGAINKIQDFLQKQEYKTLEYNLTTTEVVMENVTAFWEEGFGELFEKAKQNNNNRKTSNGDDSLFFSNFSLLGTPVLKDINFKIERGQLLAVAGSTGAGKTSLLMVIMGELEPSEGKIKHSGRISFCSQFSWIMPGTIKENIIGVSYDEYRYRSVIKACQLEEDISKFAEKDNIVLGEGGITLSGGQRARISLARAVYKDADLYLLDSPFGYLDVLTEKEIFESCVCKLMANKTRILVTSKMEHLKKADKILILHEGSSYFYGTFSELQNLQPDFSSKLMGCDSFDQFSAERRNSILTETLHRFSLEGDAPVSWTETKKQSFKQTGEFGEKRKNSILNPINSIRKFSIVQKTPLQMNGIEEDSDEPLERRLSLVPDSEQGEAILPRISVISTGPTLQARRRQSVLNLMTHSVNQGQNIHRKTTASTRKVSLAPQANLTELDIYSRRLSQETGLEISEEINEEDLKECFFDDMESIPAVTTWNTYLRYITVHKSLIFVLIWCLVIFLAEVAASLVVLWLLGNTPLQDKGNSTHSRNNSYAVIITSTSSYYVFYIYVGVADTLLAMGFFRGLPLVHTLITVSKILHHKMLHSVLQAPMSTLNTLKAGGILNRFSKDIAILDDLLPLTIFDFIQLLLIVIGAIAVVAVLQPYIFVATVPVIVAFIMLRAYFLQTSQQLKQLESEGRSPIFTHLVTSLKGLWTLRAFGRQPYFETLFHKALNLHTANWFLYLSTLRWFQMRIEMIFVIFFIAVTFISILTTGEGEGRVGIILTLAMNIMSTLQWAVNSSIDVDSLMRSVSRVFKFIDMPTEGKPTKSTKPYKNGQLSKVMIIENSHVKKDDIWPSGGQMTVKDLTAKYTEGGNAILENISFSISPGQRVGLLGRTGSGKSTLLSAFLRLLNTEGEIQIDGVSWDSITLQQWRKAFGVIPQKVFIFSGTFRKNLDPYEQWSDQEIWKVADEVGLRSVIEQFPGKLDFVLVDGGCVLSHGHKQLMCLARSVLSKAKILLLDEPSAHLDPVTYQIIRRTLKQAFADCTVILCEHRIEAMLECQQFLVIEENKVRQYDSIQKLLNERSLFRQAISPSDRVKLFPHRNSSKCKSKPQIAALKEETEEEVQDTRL

As a reminder, the EC50 is the concentration needed to bring the measured effect to its halfway point. By Emax is commonly meant the greatest response seen or fitted, relative to the assay's reference. Regarding `Cc1cc(N2C3CCC2CC3)ncc1NC(=O)c1c[nH]c2cccc(C)c2c1=O` [Compound 1, N-(6-(7-azabicyclo[2.2.1]heptan-7-yl)-4-methylpyridin-3-yl)-5-methyl-4-oxo-1,4-dihydroquinoline-3-carboxamide hydrochloride], the concentration giving a half-maximal response (EC50) was < 2000 nM and the Emax lay in the range of 25 to 100%.

Turning to `O=C(Nc1ccc(N2C3CCC2CC3)nc1C(F)(F)F)c1c[nH]c2cccc(C(F)(F)F)c2c1=O` [Compound 2, N-(6-(7-azabicyclo[2.2.1]heptan-7-yl)-2-(trifluoromethyl)pyridin-3-yl)-4-oxo-5-(trifluoromethyl)-1,4-dihydroquinoline-3-carboxamide], the EC50 was < 2000 nM and the Emax was in the range of 25 to 100%.

On to `Cc1cccc2[nH]cc(C(=O)Nc3ccc(N4C5CCC4CC5)nc3C(F)(F)F)c(=O)c12` [Compound 3], for which the concentration for a half-maximal effect (EC50) was < 2000 nM and the Emax lay within 25 to 100%.
